According to the NIST ThermoML archive (doi:10.1021/acs.jced.7b01053):
Values joined by “and” are separate entries in the source; they are usually repeats but may differ in a detail not shown here. Equal entries are not always repeated. Numbers after ± are expanded uncertainties.

Assay: mn = molality of the nth substance listed, in mol/kg
Conditions: 293 K, 100 kPa, Liquid, Alternating current cell with electrodes

CC(=O)[O-].[NH3+]CCO [2-hydroxyethylammonium acetate] + O
Conditions	electrical conductivity [S/m]
m1 = 0.02015	0.13 ± 0.008
m1 = 0.0241	0.138 ± 0.016
m1 = 0.03983	0.262 ± 0.02
m1 = 0.04796	0.274 ± 0.02
m1 = 0.05774	0.359 ± 0.027
m1 = 0.07416	0.45 ± 0.034
m1 = 0.07452	0.4 ± 0.029
m1 = 0.09015	0.539 ± 0.041
m1 = 0.09982	0.512 ± 0.038
m1 = 0.1057	0.618 ± 0.051
m1 = 0.1213	0.702 ± 0.057
m1 = 0.1267	0.628 ± 0.051
m1 = 0.1356	0.775 ± 0.068
m1 = 0.1485	0.835 ± 0.073
m1 = 0.1519	0.737 ± 0.063
m1 = 0.1621	0.9 ± 0.084
m1 = 0.1743	0.958 ± 0.089
m1 = 0.1778	0.847 ± 0.076
m1 = 0.1867	1.02 ± 0.1
m1 = 0.2004	1.08 ± 0.16
m1 = 0.2025	0.95 ± 0.15
m1 = 0.2157	1.14 ± 0.12
m1 = 0.2285	1.06 ± 0.1
m1 = 0.2326	1.21 ± 0.15
m1 = 0.2502	1.29 ± 0.14
m1 = 0.2521	1.16 ± 0.12
m1 = 0.2691	1.37 ± 0.15
m1 = 0.2755	1.23 ± 0.13
m1 = 0.2868	1.44 ± 0.17
m1 = 0.2977	1.33 ± 0.15
m1 = 0.3032	1.44 ± 0.17
m1 = 0.3189	1.48 ± 0.17
m1 = 0.3199	1.42 ± 0.16
m1 = 0.3337	1.56 ± 0.19
m1 = 0.3404	1.49 ± 0.17
m1 = 0.3476	1.61 ± 0.2
m1 = 0.3609	1.61 ± 0.2
m1 = 0.3615	1.57 ± 0.19
m1 = 0.3811	1.64 ± 0.21
m1 = 0.3855	1.75 ± 0.23
m1 = 0.4003	1.72 ± 0.22
m1 = 0.4075	1.86 ± 0.25
m1 = 0.4184	1.77 ± 0.23
m1 = 0.4279	1.93 ± 0.26
m1 = 0.4359	1.83 ± 0.24
m1 = 0.4463	1.98 ± 0.28
m1 = 0.4526	1.87 ± 0.25
m1 = 0.4627	2.03 ± 0.29
m1 = 0.4642	1.9 ± 0.26
m1 = 0.4774	2.08 ± 0.32
m1 = 0.4797	1.94 ± 0.29
m1 = 0.4943	1.99 ± 0.28
m1 = 0.5085	2.04 ± 0.29
m1 = 0.5221	2.09 ± 0.3
m1 = 0.5351	2.13 ± 0.31
m1 = 0.5473	2.17 ± 0.32
m1 = 0.5594	2.23 ± 0.34
m1 = 0.5705	2.27 ± 0.34

CC(=O)[O-].C[NH2+]CCO [N-methyl-2-hydroxyethylammonium acetate] + O
Conditions	electrical conductivity
m1 = 0.01579	0.077 ± 0.013 S/m
m1 = 0.01797	0.09 ± 0.013 S/m
m1 = 0.03269	0.14 ± 0.018 S/m
m1 = 0.03539	0.162 ± 0.019 S/m
m1 = 0.05165	0.21 ± 0.028 S/m
m1 = 0.05369	0.236 ± 0.029 S/m
m1 = 0.06943	0.29 ± 0.02 S/m
m1 = 0.07132	0.318 ± 0.022 S/m
m1 = 0.08822	0.356 ± 0.037 S/m
m1 = 0.09023	0.385 ± 0.039 S/m
m1 = 0.1063	0.507 ± 0.063 S/m
m1 = 0.1084	0.453 ± 0.061 S/m
m1 = 0.1255	0.561 ± 0.043 S/m
m1 = 0.1264	0.551 ± 0.042 S/m
m1 = 0.1433	0.607 ± 0.047 S/m
m1 = 0.1458	0.612 ± 0.048 S/m
m1 = 0.162	0.66 ± 0.053 S/m
m1 = 0.1641	0.665 ± 0.053 S/m
m1 = 0.1793	0.705 ± 0.058 S/m
m1 = 0.1809	0.713 ± 0.059 S/m
m1 = 0.1972	0.75 ± 0.063 S/m
m1 = 0.1983	0.762 ± 0.064 S/m
m1 = 0.2133	0.804 ± 0.069 S/m
m1 = 0.2134	0.787 ± 0.067 S/m
m1 = 0.2303	0.833 ± 0.073 S/m
m1 = 0.2308	0.838 ± 0.074 S/m
m1 = 0.2458	0.87 ± 0.078 S/m
m1 = 0.246	0.877 ± 0.079 S/m
m1 = 0.2615	0.899 ± 0.081 S/m
m1 = 0.2616	0.861 ± 0.076 S/m
m1 = 0.276	0.893 ± 0.081 S/m
m1 = 0.2762	0.942 ± 0.087 S/m
m1 = 0.2904	0.926 ± 0.085 S/m
m1 = 0.2909	0.968 ± 0.091 S/m
m1 = 0.3042	0.957 ± 0.089 S/m
m1 = 0.3044	0.998 ± 0.095 S/m
m1 = 0.3175	1.01 ± 0.097 S/m
m1 = 0.3178	1.03 ± 0.099 S/m
m1 = 0.3298	1.04 ± 0.1 S/m
m1 = 0.3302	1.04 ± 0.1 S/m
m1 = 0.3422	1.07 ± 0.1 S/m
m1 = 0.3425	1.08 ± 0.11 S/m
m1 = 0.354	1.11 ± 0.11 S/m
m1 = 0.3542	1.1 ± 0.11 S/m
m1 = 0.3654	1.13 S/m and 1.12 S/m
m1 = 0.376	1.16 ± 0.12 S/m
m1 = 0.3765	1.15 ± 0.12 S/m
m1 = 0.3868	1.17 ± 0.12 S/m
m1 = 0.3967	1.19 ± 0.12 S/m
m1 = 0.4065	1.21 ± 0.13 S/m
m1 = 0.4155	1.24 ± 0.13 S/m
m1 = 0.4245	1.27 ± 0.14 S/m

CCCC(=O)[O-].C[NH2+]CCO [N-methyl-2-hydroxyethylammonium butanoate] + O
Conditions	electrical conductivity [S/m]
m1 = 0.01443	0.041 ± 0.005
m1 = 0.01609	0.047 ± 0.005
m1 = 0.03059	0.077 ± 0.006
m1 = 0.03161	0.084 ± 0.006
m1 = 0.04718	0.115 ± 0.008
m1 = 0.04851	0.122 ± 0.008
m1 = 0.06311	0.149 ± 0.009
m1 = 0.06401	0.155 ± 0.01
m1 = 0.08077	0.185 ± 0.012
m1 = 0.08176	0.189 ± 0.012
m1 = 0.09698	0.232 ± 0.015
m1 = 0.09705	0.235 ± 0.015
m1 = 0.1139	0.268 ± 0.017
m1 = 0.1146	0.267 ± 0.017
m1 = 0.1298	0.298 ± 0.019
m1 = 0.1307	0.297 ± 0.019
m1 = 0.1464	0.324 ± 0.021
m1 = 0.1479	0.328 ± 0.022
m1 = 0.1614	0.35 ± 0.023
m1 = 0.1638	0.355 ± 0.024
m1 = 0.1771	0.372 ± 0.026
m1 = 0.1802	0.383 ± 0.026
m1 = 0.1918	0.395 ± 0.027
m1 = 0.1952	0.408 ± 0.028
m1 = 0.2064	0.42 ± 0.029
m1 = 0.2106	0.434 ± 0.03
m1 = 0.2201	0.44 ± 0.031
m1 = 0.2246	0.456 ± 0.032
m1 = 0.2336	0.46 ± 0.033
m1 = 0.2384	0.478 ± 0.034
m1 = 0.2466	0.48 ± 0.034
m1 = 0.2514	0.496 ± 0.036
m1 = 0.2596	0.498 ± 0.036
m1 = 0.2644	0.516 ± 0.038
m1 = 0.2712	0.513 ± 0.038
m1 = 0.2766	0.528 ± 0.039
m1 = 0.283	0.525 ± 0.039
m1 = 0.2887	0.542 ± 0.04
m1 = 0.294	0.54 ± 0.04
m1 = 0.2998	0.558 ± 0.042
m1 = 0.3048	0.556 ± 0.042
m1 = 0.311	0.572 ± 0.043
m1 = 0.3148	0.571 ± 0.043
m1 = 0.3214	0.586 ± 0.045
m1 = 0.3247	0.583 ± 0.045
m1 = 0.3317	0.6 ± 0.046
m1 = 0.334	0.596 ± 0.046
m1 = 0.3412	0.611 ± 0.047
m1 = 0.343	0.607 ± 0.047
m1 = 0.3505	0.624 ± 0.049
m1 = 0.3515	0.619 ± 0.048
m1 = 0.3593	0.634 ± 0.05
m1 = 0.3599	0.629 ± 0.049
m1 = 0.3677	0.639 ± 0.05
m1 = 0.3679	0.646 ± 0.051
m1 = 0.3758	0.656 ± 0.052
